Source: patent US5702883A, “Methods for detection of mutagens using luminescence gene” (Kabushiki Kaisha Toyota Chuo Kenkyusho, priority 1993, dated 1997)

Experiments:
[1] = test system: S. typhimurium TA1535/pSK1002 (umu D,C SOS gene, β-galactosidase expression); assay: Conventional colorimetric method (umu test, β-galactosidase activity), Comparative Example 4; conditions: Table 2; response two times that without test substance; 37° C., 2 hours; S9 Mix where necessary
[2] = test system: S. typhimurium TA1535/pSK1002 (umu D,C SOS gene, β-galactosidase expression); assay: Conventional colorimetric method (umu test, β-galactosidase activity), Comparative Example 3; conditions: Table 1; response two times that without test substance; 37° C., 2 hours; S9Mix where necessary
[3] = test system: S. typhimurium TA1535 (umu D,C SOS gene, luciferase expression); conditions: for Minimum detectable concentration, Method of Present Invention: Table 1, response two times that without test substance, 37° C., 2 hours, S9Mix where necessary; for minimum detectable concentration, fold lower than conventional colorimetric method: first embodiment (luc) vs conventional method
[4] = test system: S. typhimurium TA1535 (umu D,C SOS gene, luminescence genes of pUCD620); assay: Luminescence assay with genes for luciferase and the enzyme producing its substrate, Example 6; conditions: Table 2; response two times that without test substance; 30° C., 2 hours; S9 Mix where necessary
[5] = Conventional colorimetric method (umu test, β-galactosidase activity), Comparative Example 3; conditions: s. typhimurium ta1535/psk1002
in vitro = conditions: s. typhimurium ta1535

Row | Compound | Minimum detectable concentration, Conventional Method [1] [µg/mL] | Minimum detectable concentration, Conventional Method [2] [µg/mL] | Minimum detectable concentration, Method of Present Invention [3] [µg/mL] | minimum detectable concentration, fold lower than conventional colorimetric method [3] | Minimum detectable concentration, Method of Present Invention [4] [µg/mL] | maximal fold induction [5] | dynamic range (highest value of the ratio), expansion relative to conventional colorimetric method ([3]; first embodiment vs conventional colorimetric method) | maximal fold induction (in vitro)
1 | O=[N+]([O-])c1ccc2ccc3cccc4ccc1c2c34 [1-NP, 1-nitropyrene] | 0.3 | 0.3 | 0.03 | about 10 times | 0.05 | – | – | –
2 | Nc1ccc2cc3ccccc3cc2c1 [2-AA, 2-aminoanthracene] | 0.1 | 0.1 | 0.04 | – | 0.02 | – | – | –
3 | O=[N+]([O-])c1cc[n+]([O-])c2ccccc12 [4NQO, 4-nitroquinoline 1-oxide] | 0.04 | 0.04 | 0.01 | – | 0.008 | – | – | –
4 | NC(=O)C(=Cc1ccc([N+](=O)[O-])o1)c1ccco1 [AF-2, 2-(2-furyl)-3-(5-nitro-2-furyl)-acrylamide] | 0.003 | 0.003 | 0.0005 | – | 0.0005 | ~5 | about 3 times | ~15
5 | c1ccc2c(c1)cc1ccc3cccc4ccc2c1c34 [Bap, benzo[a]pyrene] | 1 | 1 | 0.1 | about 10 times | 0.04 | – | – | –
